Results published in patent US20070134261A1, “Effectors of innate immunity” (priority 2001, published 2007).
Residues, ends and D or L forms follow the SMILES beside them.

System: A549 epithelial cells
Assay: Human Operon arrays (PRHU04-S1) of A549 cells treated with peptide alone (Tables 31-37, 53)
Conditions: peptide 50 μg/ml, 4 h, A549 cells

`CSCC[C@H](NC(=O)[C@H](CO)NC(=O)[C@@H](NC(=O)[C@H](CCCCN)NC(=O)[C@H](Cc1ccccc1)NC(=O)[C@H](CS)NC(=O)[C@H](CO)NC(=O)[C@H](CCCNC(=N)N)NC(=O)[C@@H](N)CCCCN)C(C)C)C(=O)N[C@@H](CCCNC(=N)N)C(=O)NCC(=O)N[C@H](C(=O)N[C@@H](CO)C(=O)N[C@@H](CCCNC(=N)N)C(=O)N[C@@H](CCCNC(=N)N)C(=O)N[C@@H](CCCNC(=N)N)C(=O)N[C@@H](CS)C(=O)N[C@@H](CCCCN)C(=O)O)C(C)C` [SEQ ID NO: 27] (H-KRSCFKVSMRGVSRRRCK-OH; N-terminus and C-terminus assumed) was tested, and the “ID#:ctrl expression ratio, AB002359 phosphoribosyl formylglycina midine synthase” value was 2.7, the “ID#:ctrl expression ratio, AB006537 IL-1R accessory protein” value was 7.0 and the “ID#:ctrl expression ratio, AB011124 KIAA0552 gene product” value was 72.0. For the same compound, the “ID#:ctrl expression ratio, AB014536 copine III” value was 9.5, the “ID#:ctrl expression ratio, AB018285 KIAA0742 protein” value was 13.9 and the “ID#:ctrl expression ratio, AB020659 KIAA0852 protein” value was 7.6. For the same compound, the “ID#:ctrl expression ratio, AC004774 distal-less homeo box 5” value was 6.3, the “ID#:ctrl expression ratio, AC005154 unkown” value was 7.2 and the “ID#:ctrl expression ratio, AF000237 1-acylglycerol-3-phosphate O-acyltransferase 2” value was 2.5. For the same compound, the “ID#:ctrl expression ratio, AF012086 RAN binding protein 2-like 1” value was 4.0, the “ID#:ctrl expression ratio, AF030555 fatty-acid-Coenzyme A ligase_long-chain 4” value was 2.2 and the “ID#:ctrl expression ratio, AF035309 proteasome 26S subunit ATPase 5” value was 6.6. For the same compound, the “ID#:ctrl expression ratio, AF038664 UDP-Gal:beta GlcNAc beta 1_4-galactosyltransferase” value was 22.2, the “ID#:ctrl expression ratio, AF042378 spindle pole body protein” value was 3.0 and the “ID#:ctrl expression ratio, AF052138 unknown” value was 2.8. For the same compound, the “ID#:ctrl expression ratio, AF052183 unknown” value was 3.7, the “ID#:ctrl expression ratio, AF071510 lecithin retinol acyltransferase” value was 10.3 and the “ID#:ctrl expression ratio, AF074723 RNA polymerase II transcriptional regulation mediator” value was 3.2. For the same compound, the “ID#:ctrl expression ratio, AF080579 Homo sapiens integral membrane protein” value was 3.0, the “ID#:ctrl expression ratio, AF088868 fibrousheathin II” value was 10.0 and the “ID#:ctrl expression ratio, AF093265 Homer neuronal immediate early gene_3” value was 13.3. The “ID#:ctrl expression ratio, AF124735 LIM HOX gene 2” value was 4.4, the “ID#:ctrl expression ratio, AF131831 unknown” value was 7.0 and the “ID#:ctrl expression ratio, AF151043 hypothetical protein” value was 2.2. The “ID#:ctrl expression ratio, AF251040 putative nuclear protein” value was 3.4, the “ID#:ctrl expression ratio, AJ005273 antigenic determinant of recA protein” value was 11.1 and the “ID#:ctrl expression ratio, AK000161 hypothetical protein” value was 8.7. The “ID#:ctrl expression ratio, AK000227 hypothetical protein” value was 7.1, the “ID#:ctrl expression ratio, AK000541 hypothetical protein” value was 13.9 and the “ID#:ctrl expression ratio, AK000576 hypothetical protein” value was 9.3. The “ID#:ctrl expression ratio, AK001075 hypothetical protein” value was 2.6, the “ID#:ctrl expression ratio, AK001135 Sec23-interacting protein p125” value was 4.5 and the “ID#:ctrl expression ratio, AK001154 hypothetical protein” value was 4.4. The “ID#:ctrl expression ratio, AK001890 unknown” value was 3.5, the “ID#:ctrl expression ratio, AL024493 unknown” value was 13.5 and the “ID#:ctrl expression ratio, AL031121 unknown” value was 3.7. The “ID#:ctrl expression ratio, AL031588 hypothetical protein” value was 20.2, the “ID#:ctrl expression ratio, AL035562 paired box gene 1” value was 81.9 and the “ID#:ctrl expression ratio, AL080077 unknown” value was 2.0. For the same compound, the “ID#:ctrl expression ratio, AL096803 unknown” value was 18.3, the “ID#:ctrl expression ratio, AL110125 unknown” value was 2.7 and the “ID#:ctrl expression ratio, AL133051 unknown” value was 6.3. For the same compound, the “ID#:ctrl expression ratio, AL133605 unknown” value was 4.2, the “ID#:ctrl expression ratio, AL137268 KIAA0759 protein” value was 2.3 and the “ID#:ctrl expression ratio, AL137461 unknown” value was 9.0. For the same compound, the “ID#:ctrl expression ratio, AL137540 unknown” value was 2.6, the “ID#:ctrl expression ratio, AL137577 unknown” value was 6.2 and the “ID#:ctrl expression ratio, AL137718 unknown” value was 8.0. The “ID#:ctrl expression ratio, D00760 proteasome subunit_alpha type_2” value was 2.6, the “ID#:ctrl expression ratio, D12676 CD36 antigen” value was 3.4 and the “ID#:ctrl expression ratio, D31891 SET domain_bifurcated_1” value was 6.0. For the same compound, the “ID#:ctrl expression ratio, D42053 site-1 protease” value was 7.1, the “ID#:ctrl expression ratio, D50405 histone deacetylase 1” value was 7.2 and the “ID#:ctrl expression ratio, D80000 Segregation of mitotic chromosomes 1” value was 2.5. For the same compound, the “ID#:ctrl expression ratio, D87120 osteoblast protein” value was 2.0, the “ID#:ctrl expression ratio, J03068 N-acylaminoacyl-peptide hydrolase” value was 5.0 and the “ID#:ctrl expression ratio, L34587 transcription elongation factor B” value was 16.3. For the same compound, the “ID#:ctrl expression ratio, M34175 adaptor-related protein complex 2 beta 1 subunit” value was 3.1, the “ID#:ctrl expression ratio, M81933 cell division cycle 25A” value was 3.1 and the “ID#:ctrl expression ratio, M97925 defensin alpha 5_Paneth cell-specific” value was 35.9. For the same compound, the “ID#:ctrl expression ratio, NM_004732 potassium voltage-gated channel” value was 4.0, the “ID#:ctrl expression ratio, NM_004862 LPS-induced TNF-alpha factor” value was 4.8 and the “ID#:ctrl expression ratio, NM_006963 zinc finger protein 22” value was 7.6. The “ID#:ctrl expression ratio, NM_013329 GC-rich sequence DNA-binding factor candidate” value was 14.3, the “ID#:ctrl expression ratio, NM_013393 cell division protein FtsJ” value was 5.8 and the “ID#:ctrl expression ratio, NM_014366 putative nucleotide binding protein_estradiol-induced” value was 4.3. The “ID#:ctrl expression ratio, NM_016015 CGI-68 protein” value was 2.3, the “ID#:ctrl expression ratio, S49953 DNA-binding transcriptional activator” value was 4.0 and the “ID#:ctrl expression ratio, S57296 HER2/neu receptor” value was 12.1. The “ID#:ctrl expression ratio, U00115 zinc finger protein 51” value was 2.2, the “ID#:ctrl expression ratio, U13666 G protein-coupled receptor 1” value was 5.4 and the “ID#:ctrl expression ratio, U33547 MHC class II antigen HLA-DRB6 mRNA” value was 5.3. The “ID#:ctrl expression ratio, U67156 mitogen-activated protein kinase kinase kinase 5” value was 3.0, the “ID#:ctrl expression ratio, U68018 MAD homolog 2” value was 2.2 and the “ID#:ctrl expression ratio, U71092 G protein-coupled receptor 24” value was 9.1. The “ID#:ctrl expression ratio, U78305 protein phosphatase 1D” value was 13.0, the “ID#:ctrl expression ratio, U88528 cAMP responsive element binding protein” value was 5.4 and the “ID#:ctrl expression ratio, U88666 SFRS protein kinase 2” value was 5.9. The “ID#:ctrl expression ratio, X59770 IL-1R type II” value was 4.7, the “ID#:ctrl expression ratio, X62744 MHC class II DM alpha” value was 4.7 and the “ID#:ctrl expression ratio, X63563 polymerase II polypeptide B” value was 8.1. For the same compound, the “ID#:ctrl expression ratio, X89399 RAS p21 protein activator” value was 14.9.
